For this assay, the system named is AMPA receptors. The assay is described as follows: AMPA ES cell FLIPR screen (AMPA Potentiator Assay). The note with it: murine ES cell-derived neurons, FLIPR Fluo-4 calcium signal, 32 uM AMPA challenge; values marked * are the geometric mean of 2-9 EC50 determinations. Format: cell-based. How it is done: The murine ES cell line used was E14-Sx1-16C, which has a targeted mutation in the Sox1 gene, a neuroectodermal marker, that offers G418 resistance when the Sox1 gene is expressed (Stem Cell Sciences). ES cells were maintained undifferentiated as previously described (Roach). […] ES cells were plated on gelatin-coated dishes (BD Biosciences), the media was changed daily and the cells were dissociated with 0.05% Trypsin EDTA (Invitrogen) every other day.
Embryoid Body Formation: Prior to embryoid body (EB) formation the ES cells were weaned from FBS onto Knockout Serum Replacement (KSR) (Invitrogen). To form EBs, ES cells were dissociated into a single cell suspension, then 3×10^6 cells were plated in bacteriology dishes (Nunc 4014) and grown as a suspension culture in NeuroEB-I medium that consisted of Knockout™ D-MEM (Invitrogen), supplemented with 10% KSR (Invitrogen), 0.2 mM L-Glutamine (Invitrogen), 0.1 mM MEM non-essential amino acids (Invitrogen), 30 μg/ml Gentamicin (Invitrogen), 1000 u/ml ESGRO (Chemicon), 0.1 mM 2-Mercaptoethanl (Sigma) and 150 ng/ml Transferrin (Invitrogen). The plates were put on a Stovall Belly Button shaker in an atmospheric oxygen incubator. The media was changed on day 2 of EB formation with NeuroEB-I and on day 4 with NeuroEB-II (NeuroEB-I plus 1 μg/ml mNoggin [R&D Systems]).
Neuronal Precursor Selection and Expansion: On day 5 of EB formation, EBs were dissociated with 0.05% Trypsin EDTA, and 4×10^6cells/100 mm dish were plated on Laminin coated tissue culture dishes in Neuroll-G418 medium that consisted of a base medium of a 1:1 mixture of D-MEM/F12 supplemented with N2 supplements and NeuroBasal Medium supplemented with B27 supplement and 0.1 mM L-Glutamine (all from Invitrogen). The base medium was then supplemented with 10 ng/ml bFGF (Invitrogen), 1 μg/ml mNoggin, 500 ng/ml SHH—N, 100 ng/ml FGF-8b (R&D Systems), 1 μg/ml Laminin and 200 μg/ml G418 (Invitrogen) for selection of neuronal precursors expressing Sox-1. The plates were put in an incubator that contained 2% Oxygen and were maintained in these conditions. During the 6-day selection period, the Neuroll media was changed daily. On day 6, the surviving neuronal precursor foci were dissociated with 0.05% Trypsin EDTA and the cells were plated at a density of 1.5×10^6 cells/100 mm Laminin coated dish in Neuroll-G418 medium. The cells were dissociated every other day for expansion, and prepared for Cryopreservation at passage 3 or 4. The crypreservation medium contained 50% KSR, 10% Dimethyl Sulfoxide (DMSO) (Sigma) and 40% Neurol-G418I medium. Neuronal precursors were crypreserved at a concentration of 4×10^6 cells/ml and 1 ml/cryovial in a controlled rate freezer overnight then transferred to an ultra-low freezer or liquid nitrogen for long-term storage.
Neuronal Differentiation: Cryopreserved ES cell-derived neuronal precursors were thawed by the rapid thaw method in a 37-degree water-bath. The cells were transferred from the cryovial to a 100 mm Laminin coated tissue culture dish that already contained Neuroll-G418 that had been equilibrated in a 2% Oxygen incubator. The media was changed with fresh Neuroll-G418 the next day. The cells were dissociated every other day as described above for expansion to generate enough cells to plate for the screen. For the screen, the cells were plated into 384-well poly-d-lysine coated tissue culture dishes (BD Biosciences) by the automated SelecT at a cell density of 6K cells/well in differentiation medium Neurolll that contained a 4:1 ratio of the NeuroBasalMedium/B27:D-MEM/F12/N2 supplemented with 1 μM cAMP (Sigma), 200 μM Ascorbic Acid (Sigma), 1 μg/ml Laminin (Invitrogen) and 10 ng/ml BDNF (R&D Systems). The plates were put in an incubator with 2% Oxygen and allowed to complete the differentiation process for 7 days. The cells could then be used over a 5-day period for the high throughput screen.
On the day of the assay, the FLIPR assay may be performed using the following methods: […]

Among the data in US20110172297A1, “Oxopiperdinyl And Pyranyl Sulfonamides and Pharmaceutical Compositions Thereof” (Pfizer Inc, priority 2008, published 2011) are EC50 values, retold here.

Each structure is given as a SMILES string.

The term EC50 denotes the concentration at which the effect is half-maximal. For the compound `CC(C)S(=O)(=O)N[C@@H]1CCC(=O)N[C@H]1c1ccc(-c2ccccc2)cc1` [Example 12, N-[(2S,3R)-2-biphenyl-4-yl-6-oxopiperidin-3-yl]propane-2-sulfonamide], the EC50 turned out to be 12.2 µM. The result for `CC(C)S(=O)(=O)N[C@@H]1CCC(=O)N[C@H]1c1ccc(-c2ccc(C#N)s2)cc1` [Example 51, N-{(2S,3R)-2-[4-(5-cyano-2-thienyl)phenyl]-6-oxopiperidin-3-yl}propane-2-sulfonamide] reads 1.71 µM; that for `CCOc1ccccc1-c1ccc([C@@H]2OCCC[C@H]2NS(=O)(=O)C(C)C)cc1` [Example 45, N-[(2S,3R)-2-(2′-ethoxybiphenyl-4-yl)tetrahydro-2H-pyran-3-yl]propane-2-sulfonamide], greater than 9.61 µM. The result for `CC(C)S(=O)(=O)N[C@H]1CCOC[C@@H]1c1ccc(-c2ccccc2C#N)cc1` [Example 31, N-[(3R,4S)-3-(2′-cyanobiphenyl-4-yl)tetrahydro-2H-pyran-4-yl]propane-2-sulfonamide] reads 0.318 µM; that for `CC(C)S(=O)(=O)N[C@H]1COCC[C@]1(O)c1ccc(-c2ccccc2)cc1` [Example 5, N-[(3S,4S)-4-biphenyl-4-yl-4-hydroxytetrahydro-2H-pyran-3-yl]propane-2-sulfonamide], 7.66 µM; that for `CC(C)S(=O)(=O)N[C@@H]1CCOC[C@H]1c1ccc(-c2ccccc2)cc1` [Example 33, N-[(3S,4R)-3-biphenyl-4-yltetrahydro-2H-pyran-4-yl]propane-2-sulfonamide], greater than 31.6 µM. For the compound `CC(C)S(=O)(=O)N[C@H]1CCOC[C@@H]1c1ccc(-c2cccnc2)cc1` [Example 36, N-[(3R,4S)-3-(4-pyridin-3-ylphenyl)tetrahydro-2H-pyran-4-yl]propane-2-sulfonamide], the EC50 was greater than 31.6 µM. The result for `CC(C)S(=O)(=O)N[C@H]1CCOC[C@@H]1c1ccc(-c2ccccc2)cc1` [Example 2, N-[(3R,4S)-3-biphenyl-4-yltetrahydro-2H-pyran-4-yl]propane-2-sulfonamide] reads 0.365 µM. Turning to `CC(C)S(=O)(=O)N[C@H]1CCOC[C@H]1c1ccc(-c2ccc(C#N)s2)cc1` [Example 1, N-{(3S,4S)-3-[4-(5-cyano-2-thienyl)phenyl]tetrahydro-2H-pyran-4-yl}propane-2-sulfonamide], the EC50 was determined as 11 µM. With `CC(C)S(=O)(=O)N[C@H]1CCOC[C@@H]1c1ccc(-c2ccc(C#N)cc2)cc1` [Example 38, N-[(3R,4S)-3-(4′-cyanobiphenyl-4-yl)tetrahydro-2H-pyran-4-yl]propane-2-sulfonamide] the figure was 1.04 µM.

Take `CC(C)S(=O)(=O)N[C@@H]1CCOC[C@@H]1c1ccc(-c2ccccc2C#N)cc1` [Example 23, N-[(3R,4R)-3-(2′-cyanobiphenyl-4-yl)tetrahydro-2H-pyran-4-yl]propane-2-sulfonamide]: the EC50 is 10.3 µM. With `CC(C)S(=O)(=O)N[C@@H]1CCOC[C@H]1c1ccc(-c2ccc(C#N)s2)cc1` [Example 42, N-{(3S,4R)-3-[4-(5-cyano-2-thienyl)phenyl]tetrahydro-2H-pyran-4-yl}propane-2-sulfonamide] the figure was greater than 31.6 µM; with `CC(C)S(=O)(=O)N[C@@H]1COCC[C@@H]1c1ccc(-c2ccccc2C#N)cc1` [Example 56, N-[(3S,4R)-4-(2′-cyanobiphenyl-4-yl)tetrahydro-2H-pyran-3-yl]propane-2-sulfonamide], greater than 31.6 µM; with `CC(C)S(=O)(=O)N[C@H]1COCC[C@@H]1c1ccc(-c2ccccc2)cc1` [Example 16, N-[(3R,4R)-4-biphenyl-4-yltetrahydro-2H-pyran-3-yl]propane-2-sulfonamide], 1.84 µM. With `CCOc1ccccc1-c1ccc([C@@H]2COCC[C@@H]2NS(=O)(=O)C(C)C)cc1` [Example 27, N-[(3S,4S)-3-(2′-ethoxybiphenyl-4-yl)tetrahydro-2H-pyran-4-yl]propane-2-sulfonamide] the figure was 0.32 µM; with `CC(C)S(=O)(=O)N[C@H]1CCOC[C@@H]1c1ccc(-c2ccc(F)cc2C#N)cc1` [Example 40, N-[(3R,4S)-3-(2′-cyano-4′-fluorobiphenyl-4-yl)tetrahydro-2H-pyran-4-yl]propane-2-sulfonamide], 0.255 µM. As for `CC(C)S(=O)(=O)N[C@@H]1CCCO[C@H]1c1ccc(-c2ccccc2)cc1` [Example 43, N-[(2S,3R)-2-biphenyl-4-yltetrahydro-2H-pyran-3-yl]propane-2-sulfonamide], the EC50 was greater than 31.6 µM. With `CC(C)S(=O)(=O)N[C@H]1CCC(=O)N[C@@H]1c1ccc(-c2ccccc2C#N)cc1` [Example 54, N-[(2R,3S)-2-(2′-cyanobiphenyl-4-yl)-6-oxopiperidin-3-yl]propane-2-sulfonamide] the figure was 2.29 µM; with `CC(C)S(=O)(=O)N[C@@H]1CCCO[C@H]1c1ccc(-c2ccccc2C#N)cc1` [Example 47, N-[(2S,3R)-2-(2′-cyanobiphenyl-4-yl)tetrahydro-2H-pyran-3-yl]propane-2-sulfonamide], 20.3 µM. `CC(C)S(=O)(=O)N[C@H]1CCCO[C@@H]1c1ccc(-c2ccccc2)cc1` [Example 9, N-[(2R,3S)-2-biphenyl-4-yltetrahydro-2H-pyran-3-yl]propane-2-sulfonamide]: the EC50 worked out at 4.45 µM. The result for `CC(C)S(=O)(=O)N[C@H]1CCOC[C@H]1c1ccc(-c2ccccc2C#N)cc1` [Example 22, N-[(3S,4S)-3-(2′-cyanobiphenyl-4-yl)tetrahydro-2H-pyran-4-yl]propane-2-sulfonamide] reads 0.429 µM; that for `CC(C)S(=O)(=O)N[C@H]1COCC[C@H]1c1ccc(-c2ccc(C#N)cc2)cc1` [Example 61, N-[(3R,4S)-4-(4′-cyanobiphenyl-4-yl)tetrahydro-2H-pyran-3-yl]propane-2-sulfonamide], greater than 31.6 µM; that for `CCOc1ccccc1-c1ccc([C@@H]2NC(=O)CC[C@H]2NS(=O)(=O)C(C)C)cc1` [Example 10, N-[(2S,3R)-2-(2′-ethoxybiphenyl-4-yl)-6-oxopiperidin-3-yl]propane-2-sulfonamide], greater than 7.52 µM. In the case of `CC(C)S(=O)(=O)N[C@@H]1COCC[C@H]1c1ccc(-c2ccc(C#N)s2)cc1` [Example 19, N-{(3S,4S)-4-[4-(5-cyano-2-thienyl)phenyl]tetrahydro-2H-pyran-3-yl}propane-2-sulfonamide], the EC50 is greater than 31.6 µM. `CCOc1ccccc1-c1ccc([C@H]2CCOC[C@@H]2NS(=O)(=O)C(C)C)cc1` [Example 8, N-[(3R,4R)-4-(2′-ethoxybiphenyl-4-yl)tetrahydro-2H-pyran-3-yl]propane-2-sulfonamide]: the EC50 came to 0.403 µM. The result for `CC(C)S(=O)(=O)N[C@H]1CCCO[C@@H]1c1ccc(-c2ccc(C#N)s2)cc1` [Example 48, N-{(2R,3S)-2-[4-(5-cyano-2-thienyl)phenyl]tetrahydro-2H-pyran-3-yl}propane-2-sulfonamide] reads 5.64 µM.

For `CC(C)S(=O)(=O)N[C@H]1COCC[C@@]1(O)c1ccc(-c2ccccc2)cc1` [Example 3, N-[(3S,4R)-4-biphenyl-4-yl-4-hydroxytetrahydro-2H-pyran-3-yl]propane-2-sulfonamide], the concentration for a half-maximal effect (EC50) was determined as 4.3 µM. The result for `CC(C)S(=O)(=O)N[C@@H]1CCOC[C@@H]1c1ccc(-c2ccc(C#N)s2)cc1` [Example 21, N-{(3R,4R)-3-[4-(5-cyano-2-thienyl)phenyl]tetrahydro-2H-pyran-4-yl}propane-2-sulfonamide] reads greater than 31.6 µM.
